# Laboratory results reported in US12358897B2, “Compounds and method of treating COVID-19” (Pfizer Inc., priority 2020, dated 2025).
# pKi: −log10 of the molar value.
# Molecular target: T1, full-length SARS-CoV-2 3CL protease (Severe acute respiratory syndrome coronavirus 2, UniProt P0DTD1)
# T1 construct: measures the activity of full-length SARS-CoV-2 3CL protease
# Experiment: SARS-CoV-2 Coronavirus 3C Protease FRET Assay (Dabcyl-KTSAVLQ-SGFRKME-Edans substrate)
# Type: biochemical
# Conditions: 15 nM enzyme, 25 μM peptide substrate, 60 minutes at 23° C.; Morrison equation fit; read-out: Geometric Mean Ki
row,SMILES,pKi
1,"COc1cccc2[nH]c(C(=O)N[C@@H](CC(C)C)C(=O)N[C@@H](C[C@@H]3CCNC3=O)C(=O)COC(=O)CN(C)C)cc12 [Example 4, (3S)-3-({N-[(4-methoxy-1H-indol-2-yl)carbonyl]-L-leucyl}amino)-2-oxo-4-[(3S)-2-oxopyrrolidin-3-yl]butyl N,N-dimethylglycinate]",8.53
2,"COc1cccc2[nH]c(C(=O)N[C@@H](CC(C)C)C(=O)N[C@@H](C[C@@H]3CCNC3=O)C(=O)COC(=O)c3ccncc3)cc12 [Example 34, (3S)-3-({N-[(4-methoxy-1H-indol-2-yl)carbonyl]-L-leucyl}amino)-2-oxo-4-[(3S)-2-oxopyrrolidin-3-yl]butyl pyridine-4-carboxylate]",9.22
3,"COc1cccc2[nH]c(C(=O)N[C@@H](CC(C)C)C(=O)N[C@@H](C[C@@H]3CCNC3=O)C(=O)COC(=O)[C@H]3CCCN3C)cc12 [Example 27, (3S)-3-({N-[(4-methoxy-1H-indol-2-yl)carbonyl]-L-leucyl}amino)-2-oxo-4-[(3S)-2-oxopyrrolidin-3-yl]butyl 1-methyl-D-prolinate]",10.49
4,"COc1cccc2[nH]c(C(=O)N[C@@H](CC(C)C)C(=O)N[C@@H](C[C@@H]3CCNC3=O)C(=O)COC(=O)c3c(C)ccnc3C)cc12 [Example 62, (3S)-3-({N-[(4-methoxy-1H-indol-2-yl)carbonyl]-L-leucyl}amino)-2-oxo-4-[(3S)-2-oxopyrrolidin-3-yl]butyl 2,4-dimethylpyridine-3-carboxylate]",8.37
5,"COc1cccc2[nH]c(C(=O)N[C@@H](CC(C)C)C(=O)N[C@@H](C[C@@H]3CCNC3=O)C(=O)COC(=O)C3(C)CCCCC3)cc12 [Example 13, (3S)-3-({N-[(4-methoxy-1H-indol-2-yl)carbonyl]-L-leucyl}amino)-2-oxo-4-[(3S)-2-oxopyrrolidin-3-yl]butyl 1-methylcyclohexanecarboxylate]",6.86
6,"COc1cccc2[nH]c(C(=O)N[C@@H](CC(C)C)C(=O)N[C@@H](C[C@@H]3CCNC3=O)C(=O)COC(=O)c3c(C)nc(C4CCOCC4)nc3C)cc12 [Example 75, (3S)-3-({N-[(4-methoxy-1H-indol-2-yl)carbonyl]-L-leucyl}amino)-2-oxo-4-[(3S)-2-oxopyrrolidin-3-yl]butyl 4,6-di methyl-2-(tetrahydro-2H-pyran-4-yl)pyrimidine-5-carboxylate]",8.26
7,"COc1cccc2[nH]c(C(=O)N[C@@H](CC(C)C)C(=O)N[C@@H](C[C@@H]3CCNC3=O)C(=O)COC(=O)c3cccnc3)cc12 [Example 29, (3S)-3-({N-[(4-methoxy-1H-indol-2-yl)carbonyl]-L-leucyl}amino)-2-oxo-4-[(3S)-2-oxopyrrolidin-3-yl]butyl pyridine-3-carboxylate]",8.02
8,"CCOc1nccc(C)c1C(=O)OCC(=O)[C@H](C[C@@H]1CCNC1=O)NC(=O)[C@H](CC(C)C)NC(=O)c1cc2c(OC)cccc2[nH]1 [Example 64, (3S)-3-({N-[(4-methoxy-1H-indol-2-yl)carbonyl]-L-leucyl}amino)-2-oxo-4-[(3S)-2-oxopyrrolidin-3-yl]butyl 2-ethoxy-4-methylpyridine-3-carboxylate]",7.46
9,"COc1cccc2[nH]c(C(=O)N[C@@H](CC(C)C)C(=O)N[C@@H](C[C@@H]3CCNC3=O)C(=O)COC(=O)c3cccnc3C)cc12 [Example 24, (3S)-3-({N-[(4-methoxy-1H-indol-2-yl)carbonyl]-L-leucyl}amino)-2-oxo-4-[(3S)-2-oxopyrrolidin-3-yl]butyl 2-methylpyridine-3-carboxylate]",7.85
10,"COc1cccc2[nH]c(C(=O)N[C@@H](CC(C)C)C(=O)N[C@@H](C[C@@H]3CCNC3=O)C(=O)COC(=O)c3ccccn3)cc12 [Example 35, (3S)-3-({N-[(4-methoxy-1H-indol-2-yl)carbonyl]-L-leucyl}amino)-2-oxo-4-[(3S)-2-oxopyrrolidin-3-yl]butyl pyridine-2-carboxylate]",8.35
